Calls of active or inactive are those of the source.
What was measured:
[1] = target: Potassium voltage-gated channel subfamily KQT member 2 (Rattus norvegicus, UniProt O88943); experiment: KCNQ2 potassium channel inhibitors, dose response, cell-based, automated electrophysiology, set II, rat KCNQ2 (AID 588637); format: functional
[2] = target: T1, Sentrin-specific protease 1 (Homo sapiens, UniProt Q9P0U3); experiment: potency of human SENP1 inhibitors, dose response, biochemical, kinetic FRET (AID 651697); format: functional; settings: read-out: IC50_Mean
T1 sequence (Q9P0U3 whole entry, the tested form may be a part): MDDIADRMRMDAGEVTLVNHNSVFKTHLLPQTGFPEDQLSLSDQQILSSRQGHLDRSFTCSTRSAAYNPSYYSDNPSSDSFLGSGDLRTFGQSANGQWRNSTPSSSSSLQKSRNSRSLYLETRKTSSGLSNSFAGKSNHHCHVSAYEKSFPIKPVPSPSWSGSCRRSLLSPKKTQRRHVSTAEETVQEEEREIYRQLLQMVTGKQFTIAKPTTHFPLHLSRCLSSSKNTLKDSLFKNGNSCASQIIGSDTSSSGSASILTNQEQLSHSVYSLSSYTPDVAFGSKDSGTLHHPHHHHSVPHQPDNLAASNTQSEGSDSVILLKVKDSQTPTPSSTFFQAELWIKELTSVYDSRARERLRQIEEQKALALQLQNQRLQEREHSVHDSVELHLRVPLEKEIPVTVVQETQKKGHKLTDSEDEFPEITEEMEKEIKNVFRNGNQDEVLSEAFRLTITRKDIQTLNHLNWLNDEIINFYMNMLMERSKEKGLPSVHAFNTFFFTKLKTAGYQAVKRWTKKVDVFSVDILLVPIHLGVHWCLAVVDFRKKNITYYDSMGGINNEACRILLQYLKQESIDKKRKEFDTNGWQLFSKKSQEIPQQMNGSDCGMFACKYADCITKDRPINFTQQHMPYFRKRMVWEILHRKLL

[3] = target: T2, RNA-binding protein pos-1 (Caenorhabditis elegans, UniProt G5EF15); experiment: inhibitors of POS-1/mex-3 RNA binding, dose response, biochemical, fluorescence polarization (AID 1964);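 further: purified POS-1 fused to maltose binding protein made in E. coli; potency of compounds blocking POS-1 binding to fluorescent RNA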
T2 sequence (G5EF15 whole entry): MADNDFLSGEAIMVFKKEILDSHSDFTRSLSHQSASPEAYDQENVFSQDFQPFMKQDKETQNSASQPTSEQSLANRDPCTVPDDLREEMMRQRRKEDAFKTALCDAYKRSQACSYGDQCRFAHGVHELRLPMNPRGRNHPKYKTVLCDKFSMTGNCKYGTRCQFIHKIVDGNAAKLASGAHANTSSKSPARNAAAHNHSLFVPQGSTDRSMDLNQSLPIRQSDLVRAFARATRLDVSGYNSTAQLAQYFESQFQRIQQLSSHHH

[4] = target: T1, Sentrin-specific protease 1; experiment: Dose response confirmation of small molecule inhibitors of the catalytic domain of the SUMO protease, SENP1 in a FRET assay.; format: functional; settings: read-out: IC50_Mean
[5] = target: T3, Zinc finger protein mex-5 (Caenorhabditis elegans, UniProt Q9XUB2); experiment: MEX-5/TCR-2 RNA interaction inhibitors, dose response, biochemical, C. elegans, fluorescence polarization (AID 1960)
T3 sequence (Q9XUB2 whole entry): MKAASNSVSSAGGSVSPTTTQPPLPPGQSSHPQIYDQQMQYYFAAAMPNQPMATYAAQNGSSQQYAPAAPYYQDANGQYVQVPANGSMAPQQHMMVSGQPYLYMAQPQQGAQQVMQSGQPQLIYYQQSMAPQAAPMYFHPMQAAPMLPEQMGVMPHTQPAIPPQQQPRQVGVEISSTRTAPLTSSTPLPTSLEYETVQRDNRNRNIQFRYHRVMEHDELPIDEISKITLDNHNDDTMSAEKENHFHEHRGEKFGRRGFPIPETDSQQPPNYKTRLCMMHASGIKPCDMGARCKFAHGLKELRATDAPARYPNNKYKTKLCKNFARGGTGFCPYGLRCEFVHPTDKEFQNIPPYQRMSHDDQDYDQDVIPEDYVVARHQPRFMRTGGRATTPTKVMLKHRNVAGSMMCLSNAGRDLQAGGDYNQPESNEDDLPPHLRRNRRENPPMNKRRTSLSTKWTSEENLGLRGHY

Melanocortin receptor 4 = Melanocortin receptor 4 (Homo sapiens, UniProt P32245); format: functional, cell-based;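 further: Cell-based assay with luminescence read-out, confirmatory dose-response testing for agonist activity of biased ligands at MC4R; human U2OS cells with tagged receptor and beta-arrestin; potency of agonists that increase receptor coupling to beta-arrestin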
Sequence of Melanocortin receptor 4 (P32245 whole entry): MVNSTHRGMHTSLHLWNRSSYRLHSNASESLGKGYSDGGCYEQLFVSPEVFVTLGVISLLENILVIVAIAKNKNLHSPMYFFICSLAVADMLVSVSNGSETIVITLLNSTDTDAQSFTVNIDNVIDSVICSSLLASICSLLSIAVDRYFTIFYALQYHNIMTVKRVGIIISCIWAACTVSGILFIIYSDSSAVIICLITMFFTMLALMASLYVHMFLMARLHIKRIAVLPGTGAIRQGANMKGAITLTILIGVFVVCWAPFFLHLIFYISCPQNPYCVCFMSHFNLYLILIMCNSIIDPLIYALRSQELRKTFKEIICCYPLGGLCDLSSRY

Leucine aminopeptidase = target: T4, Leucine aminopeptidase (Plasmodium falciparum 3D7, UniProt Q8IL11); experiment: P. falciparum M17LAP inhibitors, primary screen, biochemical, fluorogenic H-Leu-NHMec substrate, 1536-well (AID 1619); format: functional
T4 sequence (Q8IL11 whole entry): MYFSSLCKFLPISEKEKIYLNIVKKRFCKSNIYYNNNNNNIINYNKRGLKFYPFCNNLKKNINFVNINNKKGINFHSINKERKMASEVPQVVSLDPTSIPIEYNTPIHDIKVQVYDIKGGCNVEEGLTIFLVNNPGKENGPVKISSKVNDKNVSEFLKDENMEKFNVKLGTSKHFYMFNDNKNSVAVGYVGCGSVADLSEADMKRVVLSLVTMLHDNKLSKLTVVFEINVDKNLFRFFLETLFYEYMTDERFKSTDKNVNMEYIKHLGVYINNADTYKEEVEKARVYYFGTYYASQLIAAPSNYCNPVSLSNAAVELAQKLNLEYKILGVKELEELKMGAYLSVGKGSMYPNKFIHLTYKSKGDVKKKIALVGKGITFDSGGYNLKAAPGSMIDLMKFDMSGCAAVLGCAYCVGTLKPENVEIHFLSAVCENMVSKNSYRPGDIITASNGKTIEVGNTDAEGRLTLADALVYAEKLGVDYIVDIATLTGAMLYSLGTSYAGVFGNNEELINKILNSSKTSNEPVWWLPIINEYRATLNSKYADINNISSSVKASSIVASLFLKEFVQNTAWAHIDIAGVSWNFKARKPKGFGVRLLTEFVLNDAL

[6] = C. albicans growth with fluconazole, confirmation, fluorescence, retest (AID 2467); format: functional, cell-based
[7] = NIH-3T3 fibroblast cytotoxicity, dose response, cytotoxicity control, cell-based, fluorescence, Alamar Blue, secondary assay (AID 2327); format: functional;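 further: NIH-3T3 mouse fibroblasts cultured with fluconazole at 8 µg/mL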
Interleukin-8 [8] = target: T5, Interleukin-8 (Homo sapiens, UniProt P10145); experiment: Dose Response confirmation of uHTS small molecule hits for cystic fibrosis induced NFkb Inhibitors in a PAF-induced IL8 counterscreen.; format: functional; settings: read-out: IC50_Mean
T5 sequence (P10145 whole entry): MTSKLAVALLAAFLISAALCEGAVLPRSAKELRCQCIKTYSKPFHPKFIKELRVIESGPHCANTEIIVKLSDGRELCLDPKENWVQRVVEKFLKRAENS

Interleukin-8 [9] = target: T5, Interleukin-8; experiment: Dose Response confirmation of uHTS small molecule hits for cystic fibrosis induced NFkb Inhibitors in a TNFa-induced IL8 counterscreen.; format: functional; settings: read-out: IC50_Mean
[10] = target: T6, DNA repair protein RAD52 homolog (Homo sapiens, UniProt P43351); format: functional, biochemical
T6 sequence (P43351 whole entry): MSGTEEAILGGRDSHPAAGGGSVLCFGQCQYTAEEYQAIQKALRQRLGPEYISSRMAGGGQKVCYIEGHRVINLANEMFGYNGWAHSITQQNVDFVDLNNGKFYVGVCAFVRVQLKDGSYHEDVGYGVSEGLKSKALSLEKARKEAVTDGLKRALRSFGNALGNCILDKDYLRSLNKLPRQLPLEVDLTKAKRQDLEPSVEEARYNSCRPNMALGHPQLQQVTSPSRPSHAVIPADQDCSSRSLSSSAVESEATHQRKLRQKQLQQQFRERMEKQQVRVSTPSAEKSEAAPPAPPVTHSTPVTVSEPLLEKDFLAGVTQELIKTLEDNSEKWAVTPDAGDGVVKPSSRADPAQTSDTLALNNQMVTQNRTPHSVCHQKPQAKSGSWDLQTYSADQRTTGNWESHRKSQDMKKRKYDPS

[11] = target: T7, DNA repair and recombination protein RAD54-like (Homo sapiens, UniProt Q92698); experiment: inhibitors of human RAD54 branch migration, confirmation, biochemical, fluorescence, cherry-picked samples, dose series (AID 651657); format: functional
T7 sequence (Q92698 whole entry): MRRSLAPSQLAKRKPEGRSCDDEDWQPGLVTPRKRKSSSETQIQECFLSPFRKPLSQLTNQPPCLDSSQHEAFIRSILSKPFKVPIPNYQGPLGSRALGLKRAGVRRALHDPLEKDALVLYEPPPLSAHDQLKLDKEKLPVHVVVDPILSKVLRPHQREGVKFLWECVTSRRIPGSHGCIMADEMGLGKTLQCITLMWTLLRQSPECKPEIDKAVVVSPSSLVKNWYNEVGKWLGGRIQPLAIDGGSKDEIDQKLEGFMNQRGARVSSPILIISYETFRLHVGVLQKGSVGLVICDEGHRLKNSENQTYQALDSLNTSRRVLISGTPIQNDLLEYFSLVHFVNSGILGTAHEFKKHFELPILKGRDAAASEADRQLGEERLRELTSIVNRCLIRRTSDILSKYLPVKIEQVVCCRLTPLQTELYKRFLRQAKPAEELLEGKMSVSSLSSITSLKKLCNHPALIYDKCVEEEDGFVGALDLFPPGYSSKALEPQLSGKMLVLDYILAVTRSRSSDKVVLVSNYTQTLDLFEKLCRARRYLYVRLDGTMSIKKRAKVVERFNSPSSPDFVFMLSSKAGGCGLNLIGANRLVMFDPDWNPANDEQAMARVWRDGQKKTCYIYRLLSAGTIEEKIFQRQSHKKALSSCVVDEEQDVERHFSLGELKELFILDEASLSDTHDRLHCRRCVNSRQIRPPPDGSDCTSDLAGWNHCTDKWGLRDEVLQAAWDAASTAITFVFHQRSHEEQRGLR

[12] = MDA-MB-231 cell growth inhibition, dose response, cytotoxicity control for RAD54 inhibitor project, CellTiter-Glo luminescence, cherry-pick (AID 651692); format: functional, cell-based
[13] = Fluorescence-based cell-based high throughput dose response assay for inhibitors of the interaction of nucleotide-binding oligomerization domain containing 2 (NOD2) and the receptor-interacting serine-threonine kinase 2 (RIPK2).; format: functional; settings: Homo sapiens
[14] = control 3'UTR Renilla luciferase suppression, dose response, counter-screen for Shn3 inhibitor project, cell-based, Clone20-Shn3RL, cherry-picked (AID 624133); format: functional
[15] = Shn3 3'UTR reporter inhibitors, dose response, cell-based, Clone20 osteoblasts, firefly luciferase, cherry-picked (AID 624132); format: functional;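 further: firefly luciferase luminescence from reporter carrying the Shn3 3'UTR in osteoblasts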
Paired box protein Pax-8 = Paired box protein Pax-8 (Homo sapiens, UniProt Q06710); experiment: inhibitors of PAX8-driven TPO luciferase reporter, dose response, RMG-I cells, cherry-pick (AID 687027); format: functional, cell-based;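 further: luciferase reporter driven by Pax8 target thyroperoxidase promoter measured by SteadyGlo luminescence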
Sequence of Paired box protein Pax-8 (Q06710 whole entry): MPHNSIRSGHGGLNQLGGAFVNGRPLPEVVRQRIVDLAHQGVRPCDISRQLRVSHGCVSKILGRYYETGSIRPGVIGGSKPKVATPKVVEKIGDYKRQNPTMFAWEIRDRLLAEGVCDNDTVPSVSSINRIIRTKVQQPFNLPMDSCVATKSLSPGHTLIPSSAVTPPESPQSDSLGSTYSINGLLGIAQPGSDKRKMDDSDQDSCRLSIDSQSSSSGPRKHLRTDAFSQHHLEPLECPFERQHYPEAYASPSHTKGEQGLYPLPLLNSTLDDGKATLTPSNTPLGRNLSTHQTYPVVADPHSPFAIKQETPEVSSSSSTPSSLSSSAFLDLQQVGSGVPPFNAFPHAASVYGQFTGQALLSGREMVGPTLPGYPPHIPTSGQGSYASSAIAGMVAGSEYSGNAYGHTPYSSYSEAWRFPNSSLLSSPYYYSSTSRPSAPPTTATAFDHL

[16] = HepG2 cell cytotoxicity, dose response, cytotoxicity control for Shn3 inhibitor project, CellTiter-Glo, cherry-picked (AID 624134); format: functional, cell-based
[17] = target: T8, Neuropeptides B/W receptor type 1 (Homo sapiens, UniProt P48145); experiment: GPR7 antagonist potency, late-stage follow-up, cell-based, fluorescence, dose response, set 6 (AID 588583); format: functional
T8 sequence (P48145 whole entry): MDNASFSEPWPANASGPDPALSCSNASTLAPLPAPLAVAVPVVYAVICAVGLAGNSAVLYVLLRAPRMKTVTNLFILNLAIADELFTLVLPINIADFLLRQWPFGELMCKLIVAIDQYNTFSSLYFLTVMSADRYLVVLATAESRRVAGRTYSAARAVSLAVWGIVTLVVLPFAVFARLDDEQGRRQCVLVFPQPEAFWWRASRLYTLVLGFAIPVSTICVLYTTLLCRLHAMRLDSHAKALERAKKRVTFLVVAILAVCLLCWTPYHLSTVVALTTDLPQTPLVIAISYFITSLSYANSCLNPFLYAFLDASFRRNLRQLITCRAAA

[18] = target: Melanin-concentrating hormone receptor 1 (Homo sapiens, UniProt Q99705); experiment: Late-stage fluorescence-based counterscreen for antagonists of the G-protein coupled receptor 7 (GPR7): cell-based dose response assay to identify antagonists of the melanin-concentrating hormone receptor 1 (MCHR1) Set 6.; format: functional
Sequence of Melanin-concentrating hormone receptor 1 (Q99705 whole entry): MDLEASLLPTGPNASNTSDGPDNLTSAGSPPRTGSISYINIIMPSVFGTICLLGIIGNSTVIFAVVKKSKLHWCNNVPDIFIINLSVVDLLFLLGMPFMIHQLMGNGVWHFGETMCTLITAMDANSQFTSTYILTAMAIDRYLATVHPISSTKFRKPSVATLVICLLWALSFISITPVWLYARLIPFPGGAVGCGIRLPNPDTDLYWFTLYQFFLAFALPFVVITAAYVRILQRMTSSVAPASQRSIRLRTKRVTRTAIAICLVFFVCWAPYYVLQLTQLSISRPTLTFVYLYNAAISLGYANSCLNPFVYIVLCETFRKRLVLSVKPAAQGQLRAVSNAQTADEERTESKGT

[19] = Luminescence Cell-Based Dose Retest to Confirm Inhibitors of Cancer Stem Cells. [Related pubchem assays (depositor defined):AID2717, AID2721]; format: functional; settings: Homo sapiens
[20] = Luminescence-based counterscreen assay for KLF5 inhibitors: dose response cell-based high throughput screening assay to identify cytotoxic compounds using the IEC-6 intestinal epithelial cell line. [Related pubchem assays: 1700 (Primary screen.), 1834 (Confirmation screen.), 1858 (Summary AID.), 1905 (Counterscreen.)]; format: functional
[21] = cytotoxicity in NIH3T3 fibroblasts, dose response, cytotoxicity control for HSP40 inhibitor project, cell-based, CellTiter-Glo luminescence, cherry-pick, set 2 (AID 624265); format: functional
INS1 = experiment: beta cell apoptosis inhibitors, cytokine rescue, dose response, luminescence, retest (AID 449756); format: functional, cell-based; settings: Rattus norvegicus;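 further: cell death triggered by IL-1 beta plus TNF-alpha plus IFN-gamma mixture; protective hits raise ATP signal compared with cytokine alone wells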

Sequence of Potassium voltage-gated channel subfamily KQT member 2 (O88943 whole entry): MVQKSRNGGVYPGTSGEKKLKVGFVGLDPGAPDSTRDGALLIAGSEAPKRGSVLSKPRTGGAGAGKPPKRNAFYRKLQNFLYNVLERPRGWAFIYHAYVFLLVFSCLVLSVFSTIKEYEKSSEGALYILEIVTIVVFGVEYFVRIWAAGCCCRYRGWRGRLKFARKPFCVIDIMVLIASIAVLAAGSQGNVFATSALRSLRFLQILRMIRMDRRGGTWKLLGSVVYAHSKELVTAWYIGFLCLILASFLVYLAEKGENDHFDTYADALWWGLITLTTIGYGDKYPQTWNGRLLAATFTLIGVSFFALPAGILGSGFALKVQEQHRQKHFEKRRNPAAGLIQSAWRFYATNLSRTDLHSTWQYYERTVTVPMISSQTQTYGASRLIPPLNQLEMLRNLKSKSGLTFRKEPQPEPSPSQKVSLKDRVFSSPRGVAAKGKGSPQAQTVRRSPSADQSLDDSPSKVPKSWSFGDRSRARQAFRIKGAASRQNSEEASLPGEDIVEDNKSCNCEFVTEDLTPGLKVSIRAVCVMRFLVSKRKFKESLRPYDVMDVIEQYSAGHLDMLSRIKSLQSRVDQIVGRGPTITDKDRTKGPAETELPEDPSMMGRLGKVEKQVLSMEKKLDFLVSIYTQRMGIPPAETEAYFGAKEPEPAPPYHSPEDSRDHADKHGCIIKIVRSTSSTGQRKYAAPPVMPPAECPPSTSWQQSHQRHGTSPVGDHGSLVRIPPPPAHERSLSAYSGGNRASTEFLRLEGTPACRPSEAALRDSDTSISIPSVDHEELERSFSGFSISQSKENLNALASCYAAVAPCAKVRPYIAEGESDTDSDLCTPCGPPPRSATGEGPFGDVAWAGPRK

## COc1cc(-c2cc(C(=O)N(C)Cc3ccccc3)c3ccccc3n2)cc(OC)c1OC
[1]
  IC50: 634 nM (active)

## COc1ccc2c(c1)c1nc3ccccc3nc1n2CCn1c(=O)oc2ccccc21
[2]
  IC50: 38.6 µM (inactive)
[3]
  EC50: > 300 µM (inconclusive)
[4]
  IC50: 20.9 µM (inactive)
[5]
  EC50: > 300 µM (inconclusive)

## CC(C)c1ccc(NC(=O)CSc2ncccc2C(=O)Oc2cccc([N+](=O)[O-])c2)cc1
Melanocortin receptor 4
  EC50: > 89.2 µM (inactive)
Leucine aminopeptidase
  IC50: 8.47 µM (active)

## O=C(Oc1cc2oc(=O)cc(-c3ccccc3)c2cc1Cl)C1CCCCC1
[6]
  EC50: 2.32 µM (active)
[7]
  EC50: > 150 µM (inactive)
Interleukin-8 [8]
  IC50: 9.8 µM (active)
Interleukin-8 [9]
  IC50: > 79 µM (inactive)

## CC(=O)Nc1cc(-c2cccc(C(=O)NCCN(C)C)c2)cn2c(-c3ccc(C(C)=O)cc3)cnc12
[10]
  AC50: 2.12 µM (active)
[11]
  AC50: 16.1 µM (active)
[12]
  AC50: 31.8 µM (active)

## C=C1C(=O)[C@]23C[C@H]1CC[C@H]2[C@]1(C)[C@@H](OC(C)=O)CC[C@@](C)(C(=O)OC)[C@H]1C[C@@H]3OC(C)=O
[13]
  IC50: 3.1 µM (active)
[14]
  AC50: 5.01 µM (active)
[15]
  AC50: 5.99 µM (active)
Paired box protein Pax-8
  AC50: 3.62 µM (active)
[16]
  AC50: 13.6 µM (active)

## Cc1c(C(C#N)c2ccccc2)cnn(Cc2cccc3ccccc23)c1=O (configuration not stated)
[17]
  IC50: 3.99 µM (active)
[18]
  IC50: 3.99 µM (active)

## COc1ccc(Oc2c(Cl)cnn(Cc3cc(-c4ccccc4)n(-c4ccccc4)n3)c2=O)cc1
[17]
  IC50: > 20 µM (inactive)
[18]
  IC50: > 20 µM (inactive)

## Cc1cc(-c2ccccc2)n(-c2cc(N/N=C/c3ccccc3O)ncn2)n1
[19]
  AC50: 703 nM (active)
[20]
  IC50: 9.65 µM (active)
[21]
  AbsAC35_uM: 52.65 µM
INS1
  AC50: 4.06 µM (active)

Source: ChEMBL document CHEMBL1201862, “PubChem BioAssay data set” (2004)
